Read-outs that look alike come from different tables or passages of the source.
How the values were obtained:
[1] = molecular target: HSV-2 thymidine kinase (TK) (Human herpesvirus 2, UniProt P04407); experiment: Inhibition of HSV-2 thymidine kinase (3H-thymidine phosphorylation, DEAE-cellulose disc assay); type: biochemical
Protocol: (§1) In this test procedure, the assay mixture contains […] Tris HCl, pH 8, 5 mmol magnesium chloride, 5 mmol ATP, […] 3H-thymidine (50 Ci/mmol), suitably diluted enzyme preparation and various concentrations of test compounds in a total volume of […]. Assays are incubated at 37° C. for 30 minutes and the reaction is terminated by immersion in a boiling water bath for 2 minutes. […] aliquots from each assay are then dried on to DEAE-cellulose paper discs and the unphosphorylated 3H-thymidine is removed by washing in 4 mmol ammonium formate. The radioactivity remaining bound to the discs is then measured by scintillation spectrophotometry. The degree of inhibition at each concentration of test compound is expressed as a percentage of the control reaction (100%) after subtracting a measured blank value which represents the amount of radioactivity bound to the disc from a reaction containing heat-inactivated enzymes. The IC50 value, namely the concentration of test compound which inhibits enzyme activity by 50%, is then calculated.

[2] = molecular target: HSV-1 thymidine kinase (TK) (Human herpesvirus 1, UniProt P0DTH5); experiment: Inhibition of HSV-1 thymidine kinase (3H-thymidine phosphorylation, DEAE-cellulose disc assay); type: biochemical
HSV-1 thymidine kinase (TK), sequence (P0DTH5 whole entry): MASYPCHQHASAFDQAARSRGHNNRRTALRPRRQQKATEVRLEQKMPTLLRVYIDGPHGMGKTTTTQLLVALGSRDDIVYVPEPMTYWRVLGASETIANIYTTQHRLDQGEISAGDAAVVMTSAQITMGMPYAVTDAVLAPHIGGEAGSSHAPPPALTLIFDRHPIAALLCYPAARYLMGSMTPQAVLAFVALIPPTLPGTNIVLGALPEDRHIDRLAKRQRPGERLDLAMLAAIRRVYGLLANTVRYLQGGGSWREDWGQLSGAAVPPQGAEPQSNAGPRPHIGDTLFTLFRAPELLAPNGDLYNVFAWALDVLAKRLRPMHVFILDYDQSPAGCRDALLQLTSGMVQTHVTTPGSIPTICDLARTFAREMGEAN
Protocol: as §1

[3] = 37° C., 30 minutes, pH 8, 3H-thymidine substrate, read-out: Activity against HSV-2 TK IC50 (nmol)
[4] = 37° C., 30 minutes, pH 8, 3H-thymidine substrate, read-out: Activity against HSV-1 TK IC50 (nmol)

HSV-2 thymidine kinase (TK), sequence (P04407 whole entry): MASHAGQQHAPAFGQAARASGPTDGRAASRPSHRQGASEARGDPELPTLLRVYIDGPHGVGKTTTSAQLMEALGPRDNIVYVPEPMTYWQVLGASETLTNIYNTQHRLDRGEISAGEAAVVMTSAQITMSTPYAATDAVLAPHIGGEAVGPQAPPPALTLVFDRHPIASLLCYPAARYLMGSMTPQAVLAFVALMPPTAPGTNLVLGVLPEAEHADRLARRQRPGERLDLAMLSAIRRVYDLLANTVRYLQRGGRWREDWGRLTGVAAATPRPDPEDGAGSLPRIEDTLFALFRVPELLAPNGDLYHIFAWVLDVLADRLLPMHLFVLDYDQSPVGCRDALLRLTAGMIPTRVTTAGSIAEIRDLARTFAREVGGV

Compound	IC50 [1]	IC50 [2]	IC50 [1, 3]	IC50 [2, 4]
CCc1cn([C@H]2C[C@H](O)[C@@H](CNC(=O)C3c4ccccc4Oc4ccccc43)O2)c(=O)[nH]c1=O [2',5'-dideoxy-5-ethyl-5'-[(9-xanthenyl)carboxamido]uridine, reference compound]	0.34 nM	4.2 nM	–	–
CC1(C)CC(=O)C2=C(C1)NC1=C(C(=O)CC(C)(C)C1)C2c1ccc(Cl)c(Oc2ccccc2)c1 [A, 9-(4-chloro-3-phenoxyphenyl)-3,4,6,7,9,10-hexahydro-3,3,6,6-tetramethyl-1,8(2H,5H)-acridinedione]	–	–	0.095 nM	0.3 nM
CC1(C)CC(=O)C2=C(C1)NC1=C(C(=O)CC(C)(C)C1)C2c1ccc(Cl)c(Sc2ccccc2)c1 [B, 9-(4-chloro-3-phenylthiophenyl)-3,4,6,7,9,10-hexahydro-3,3,6,6-tetramethyl-1,8(2H,5H)-acridinedione]	–	–	0.12 nM	0.56 nM
CC1(C)CC(=O)C2=C(C1)NC1=C(C(=O)CC(C)(C)C1)C2c1ccc(Cl)c(-c2ccccc2)c1 [C, 9-[6-chloro-3-(1,1'-biphenylyl)]-3,4,6,7,9,10-hexahydro-3,3,6,6-tetramethyl-1,8(2H,5H)-acridinedione]	–	–	0.27 nM	0.52 nM
CC1(C)CC(=O)C2=C(C1)NC1=C(C(=O)CC(C)(C)C1)C2c1ccc(Cl)c(Oc2ccncc2)c1 [Compound I, 9-[4-chloro-3-(4-pyridyloxy)-phenyl]-3,4,6,7,9,10-hexahydro-3,3,6,6-tetramethyl-1,8(2H,5H)-acridinedione]	–	–	0.19 nM	0.8 nM
CC1(C)CC(=O)C2=C(C1)NC1=C(C(=O)CC(C)(C)C1)C2c1ccc(Cl)c(Cl)c1 [D, 9-(3,4-dichlorophenyl)-3,4,6,7,9,10-hexahydro-3,3,6,6-tetramethyl-1,8(2H,5H)-acridinedione]	–	–	0.64 nM	9.4 nM
CC1(C)CC(=O)C2=C(C1)NC1=C(C(=O)CC(C)(C)C1)C2c1ccc(Cl)c(F)c1 [E, 9-(4-chloro-3-fluorophenyl)-3,4,6,7,9,10-hexahydro-3,3,6,6-tetramethyl-1,8(2H,5H)-acridinedione]	–	–	0.44 nM	5.9 nM
CC1(C)CC(=O)C2=C(C1)NC1=C(C(=O)CC(C)(C)C1)C2c1ccc(Cl)c(-n2cccc2)c1 [F, 9-[4-chloro-3-(1H-pyrrol-1-yl)phenyl]-3,4,6,7,9,10-hexahydro-3,3,6,6-tetramethyl-1,8(2H,5H)-acridinedione]	–	–	0.18 nM	0.44 nM
CC1(C)CC(=O)C2=C(C1)NC1=C(C(=O)CC(C)(C)C1)C2c1cccc(Oc2ccccc2)c1 [G, 3,4,6,7,9,10-hexahydro-3,3,6,6-tetramethyl-9-(3-phenoxyphenyl)-1,8(2H,5H)-acridinedione]	–	–	1.1 nM	5.8 nM
CC1(C)CC(=O)C2=C(C1)NC1=C(C(=O)CC(C)(C)C1)C2c1ccc(Br)cc1 [H, 9(4-Bromophenyl)-3,4,6,7,9,10-hexahydro-3,3,6,6-tetramethyl-1,8(2H,5H)-acidinedione]	–	–	1.5 nM	12 nM
CC1(C)CC(=O)C2=C(C1)NC1=C(C(=O)CC(C)(C)C1)C2c1ccc([N+](=O)[O-])c(OCc2ccccc2)c1 [J, 9-(3-benzyloxy-4-nitrophenyl)-3,4,6,7,9,10-hexahydro-3,3,6,6-tetramethyl-1,8(2H,5H)-acridinedione]	–	–	0.38 nM	0.9 nM
CC1(C)CC(=O)C2=C(C1)NC1=C(C(=O)CC(C)(C)C1)C2c1ccc(Cl)c(Sc2ccncc2)c1 [K]	–	–	0.54 nM	2.6 nM

Reference: US6162918A, “Xanthene and acridine derivatives” (priority 1996, dated 2000)
